Test results reported in US10076504B2, “Glucagon antagonists” (Ligand Pharmaceuticals, Inc., priority 2014, dated 2018).
Counter-ions that a name gives are not always drawn.

How the values were obtained:
human glucagon receptor = target: T1, human glucagon receptor (Homo sapiens, UniProt P47871); assay: Human glucagon receptor binding assay; conditions: displacement of [125I]glucagon from human glucagon receptor; read-out: Hu IC50
T1 construct: host or cells: Either human liver membranes or membranes of an unnamed recombinant cell line
Experimental: Compounds provided herein are dissolved in a suitable solvent (e.g., dimethylsulfoxide) at a concentration of 10 mM and then diluted in buffer (e.g., 50 mM Hepes, pH 7.4, 5 mM MgCl2, 1 mM CaCl2, and 0.2% BSA) to concentrations ranging from 1 nM to 100 μM. Compounds (20 μL/well) and [^125I]glucagon at the final concentration of 0.125 nM (20 μl/well) (Perkin Elmer) are added to and mixed in wells of a 96-well plate (Costar, Corning) containing 120 μL of buffer. Next, an appropriate aliquot of a membrane preparation containing the human glucagon receptor (isolated from human liver samples or obtained from a recombinant cell line) is added to the wells. The binding mixtures are incubated for 2 hrs at room temperature. In the meantime, a MultiScreen 96-well filter plate (Millipore) is treated with 200 μL of the buffer, which is vacuumed through the filter just before the binding mixtures are transferred to the plate. At the end of incubation, binding mixtures are transferred to the wells of the MultiScreen 96-well filter plate and filtered through by applying vacuum. The plate is washed once with 200 μL per well of the buffer, and the filters are dried and counted using a gamma counter.
The column marked “stereo” indicates whether the tested compound tested was racemic or the R-isomer (rac=racemic).

[1] = Solubility in water, buffers, simulated fluids and Captisol; type: physicochemical; conditions: thermodynamic from solid; for solubility: aqueous with cosolvent or surfactant or cyclodextrin, ambient conditions, UV after 2-3day equilibration; for solubility at 24 h: 25° C., HPLC after 24-hour equilibration
Experimental: Solubility of a sodium salt of Formula IIIa (below) was determined in water and at various pH values and simulated intestinal fluids using HPLC and UV analysis with and without modified beta-cyclodextrin (Captisol®). Phase solubility was used to estimate the Captisol®: Formula IIIa binding constant. The influence of Captisol® on oral absorption was modelled as shown below. The effect of Captisol® on solution stability was determined by HPLC. Plasma levels of Formula IIIa were measured by LCMS/MS.

[2] = Single ascending dose study, safety and tolerability; type: in vivo, human; conditions: single oral doses 2 to 480 mg in NHV, 40 mg in T2DM subjects
Experimental: (§1) Oral doses of IIIa were administered to normal healthy volunteers (NHV) and subjects with type 2 diabetes mellitus (T2DM). A single center, randomized, double-blind, placebo-controlled single ascending dose study was done in both NHV (n=48) and T2DM subjects (n=8). Dose escalation only occurred after review of safety and tolerability data from previous dose levels (n=8/cohort; 2-placebo & 6-IIIa). Dosing of the T2DM cohort was initiated only after the equivalent dose had been administered to NHV and safety data had been reviewed. All subjects were administered IIIa in the morning after an overnight fast with the exception of the NHV in the 40 mg cohort. NHV subjects in the 40 mg cohort initially received IIIa in a fasted state. Following a 3 week washout period, IIIa was readministered after breakfast at 40 mg to determine the effects of food consumption on pharmacokinetics.
(§2) This was a single center, randomized, double-blind, placebo-controlled single ascending dose study in both normal healthy volunteers (NHV) (n=48) and subjects with type 2 diabetes mellitus (T2DM) (n=8). All subjects were administered Formula IIIa as a solution formulated with Captisol® after an overnight fast with the exception of the NHV in the 40 mg cohort. The NHV 40 mg cohort initially received Formula IIIa in a fasted state. Following a washout period, subjects received 40 mg Formula IIIa after breakfast to explore the effects of food consumption on pharmacokinetics.
In type 2 diabetes mellitus (T2DM), inappropriately elevated levels of glucagon exacerbate hyperglycemia and its associated complications. Not wishing to be bound to a particular theory, it has been observed that antagonism of glucagon action reduces blood glucose levels and hemoglobin A1c in patients with T2DM. The novel, selective, orally bioavailable glucagon receptor antagonist, Formula IIIa (below), was investigated regarding its pharmacokinetics (PK), safety, and pharmacodynamics (PD) in a first-in-human, ascending, single-dose, double blind, placebo-controlled study in normal healthy (NH) and T2DM subjects (NCT01919684).

[3] = Single ascending dose study, pharmacokinetics; type: in vivo, human; conditions: 2 to 480 mg oral, human subjects
Experimental: as §1, §2
Plasma levels of Formula IIIa were measured by validated LC-MS/MS method. Formula IIIa was well absorbed after oral administration with peak plasma concentrations reached approximately 5-8 hours post dose. Consistent with preclinical predictions, clearance was slow and Formula IIIa was not detected in the urine.

T1 sequence (P47871 26-477): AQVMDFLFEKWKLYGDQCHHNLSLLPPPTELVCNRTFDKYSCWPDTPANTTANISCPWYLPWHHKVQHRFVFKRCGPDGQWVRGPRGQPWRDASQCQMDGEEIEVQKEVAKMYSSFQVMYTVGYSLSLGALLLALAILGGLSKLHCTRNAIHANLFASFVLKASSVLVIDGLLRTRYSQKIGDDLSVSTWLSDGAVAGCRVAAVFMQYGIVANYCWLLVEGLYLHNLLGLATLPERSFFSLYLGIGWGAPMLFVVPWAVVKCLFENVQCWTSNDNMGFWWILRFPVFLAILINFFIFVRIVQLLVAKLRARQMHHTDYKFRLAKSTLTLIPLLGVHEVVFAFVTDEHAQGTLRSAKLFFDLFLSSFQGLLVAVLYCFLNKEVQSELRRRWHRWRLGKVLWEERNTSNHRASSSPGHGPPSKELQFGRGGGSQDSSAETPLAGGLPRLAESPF

Row | SMILES | IC50 (human glucagon receptor) [nM] | solubility ([1]; 15% w/v Captisol) [µg/mL] | solubility ([1]; 35% w/v Captisol) [µg/mL] | solubility at 24 h ([1]; simulated gastric fluid, 0.01N HCL) [µg/mL] | solubility at 24 h ([1]; simulated gastric fluid, 0.1N HCL) [µg/mL] | solubility at 24 h ([1]; Fasted state simulated intestinal fluid (FaSSIF)) [µg/mL] | solubility at 24 h ([1]; Fed state simulated intestinal fluid (FeSSIF)) [µg/mL] | solubility at 24 h ([1]; Simulated gastric fluid (SGF)) [µg/mL] | solubility at 24 h ([1]; Water) [µg/mL] | tolerability [2] | plasma exposure versus dose [3]
1 | Cc1cc(Cl)ccc1-c1ccc(NC(=O)C(Cc2ccc(C(=O)NCCS(=O)(=O)O)cc2)c2ccc(C3CCC(C(C)(C)C)CC3)cc2)cc1 (stereo not drawn) | 9 | – | – | – | – | – | – | – | – | – | –
2 | Cc1cc(C(F)(F)F)ccc1-c1ccc(NC(=O)C(Cc2ccc(C(=O)NCCS(=O)(=O)O)cc2)c2ccc(C3=CCC(C)(C)CC3)cc2)cc1 (racemic) | 15 | – | – | – | – | – | – | – | – | – | –
3 | Cc1cc(C)c(C2C=CC(NC(=O)[C@H](Cc3ccc(C(=O)NCCS(=O)(=O)O)cc3)c3ccc(-c4ccc(C(C)(C)C)cc4)cc3)=CC2)c(C)c1 (stereo partly drawn) [Formula IIIa sodium salt] | – | 11530 ± 40 | 32900 ± 440 | 70 | 60 | 210 | 6540 ± 190 | 40 ± 10 | 210 ± 10 | well tolerated | dose dependent increases
